Reference: ChEMBL document CHEMBL1136918, “Optimization of pyrazole inhibitors of Coactivator Associated Arginine Methyltransferase 1 (CARM1)” (Bioorg Med Chem Lett, 2009)
pEC50, pIC50: −log10 of the molar value. Blank lines part the entries; values can stand above or below the compound they belong to.

Assays:
[1] = Membrane permeability by PAMPA; type: ADME; settings: read-out: permeability
Cytochrome P450 2C19 = Cytochrome P450 2C19 (Homo sapiens, UniProt P33261); test: Inhibition of CYP2C19 expressed in human hepatocytes; type: ADME, cell-based, Hepatocyte
[2] = Toxicity against human hepatocytes; type: cell-based, Hepatocyte
[3] = molecular target: Protein arginine N-methyltransferase 1 (Homo sapiens, UniProt Q99873); test: Inhibition of PRMT1 by methylation assay
[4] = molecular target: T1, Histone-arginine methyltransferase CARM1 (Homo sapiens, UniProt Q86X55); test: Inhibition of CARM1 assessed as blockade of histone H3 methylation
T1 sequence (Q86X55 whole entry): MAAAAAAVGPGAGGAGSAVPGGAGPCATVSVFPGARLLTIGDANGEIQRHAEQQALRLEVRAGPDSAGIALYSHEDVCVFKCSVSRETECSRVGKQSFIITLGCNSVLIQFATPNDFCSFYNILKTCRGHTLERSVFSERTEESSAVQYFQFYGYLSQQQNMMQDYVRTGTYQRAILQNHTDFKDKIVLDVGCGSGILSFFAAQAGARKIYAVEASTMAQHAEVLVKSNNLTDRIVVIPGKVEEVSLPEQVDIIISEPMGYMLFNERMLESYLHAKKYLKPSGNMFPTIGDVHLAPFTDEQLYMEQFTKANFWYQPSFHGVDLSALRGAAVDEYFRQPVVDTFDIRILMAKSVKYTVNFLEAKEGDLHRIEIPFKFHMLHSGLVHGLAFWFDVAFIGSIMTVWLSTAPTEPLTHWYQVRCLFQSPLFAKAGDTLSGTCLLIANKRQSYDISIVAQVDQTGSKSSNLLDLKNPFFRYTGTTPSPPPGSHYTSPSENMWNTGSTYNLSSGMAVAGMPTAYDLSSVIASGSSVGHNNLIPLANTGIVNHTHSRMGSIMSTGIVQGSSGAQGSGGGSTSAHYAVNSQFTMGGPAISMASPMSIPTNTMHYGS

Cytochrome P450 3A4 = Cytochrome P450 3A4 (Homo sapiens, UniProt P08684); test: Inhibition of CYP3A4 expressed in human hepatocytes; type: ADME, cell-based, Hepatocyte
[5] = molecular target: T2, Nuclear receptor subfamily 1 group I member 2 (Homo sapiens, UniProt O75469); test: Inhibition of human PXR
T2 sequence (O75469 whole entry): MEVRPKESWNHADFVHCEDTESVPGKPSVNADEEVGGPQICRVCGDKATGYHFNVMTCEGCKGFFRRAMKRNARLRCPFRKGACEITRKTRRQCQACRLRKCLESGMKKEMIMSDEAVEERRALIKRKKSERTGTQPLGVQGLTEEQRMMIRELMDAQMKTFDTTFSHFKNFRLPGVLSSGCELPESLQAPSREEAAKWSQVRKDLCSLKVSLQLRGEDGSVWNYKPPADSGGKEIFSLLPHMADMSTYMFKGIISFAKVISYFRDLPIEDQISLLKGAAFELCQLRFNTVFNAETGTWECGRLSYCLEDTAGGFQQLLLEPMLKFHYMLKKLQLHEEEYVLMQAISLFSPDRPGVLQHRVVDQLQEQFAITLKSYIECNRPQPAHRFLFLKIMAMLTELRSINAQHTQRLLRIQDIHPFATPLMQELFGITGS

Cytochrome P450 2D6 = Cytochrome P450 2D6 (Homo sapiens, UniProt P10635); test: Inhibition of CYP2D6 expressed in human hepatocytes; type: ADME, cell-based, Hepatocyte
[6] = molecular target: Protein arginine N-methyltransferase 3 (Homo sapiens, UniProt O60678); test: Inhibition of PRMT3 by methylation assay
[7] = Metabolic stability in human microsomes per microgram of protein; type: ADME, Microsome
Cytochrome P450 2C9 = Cytochrome P450 2C9 (Homo sapiens, UniProt P11712); test: Inhibition of CYP2C9 expressed in human hepatocytes; type: ADME, cell-based, Hepatocyte
Sequence of Cytochrome P450 2C9 (P11712 whole entry): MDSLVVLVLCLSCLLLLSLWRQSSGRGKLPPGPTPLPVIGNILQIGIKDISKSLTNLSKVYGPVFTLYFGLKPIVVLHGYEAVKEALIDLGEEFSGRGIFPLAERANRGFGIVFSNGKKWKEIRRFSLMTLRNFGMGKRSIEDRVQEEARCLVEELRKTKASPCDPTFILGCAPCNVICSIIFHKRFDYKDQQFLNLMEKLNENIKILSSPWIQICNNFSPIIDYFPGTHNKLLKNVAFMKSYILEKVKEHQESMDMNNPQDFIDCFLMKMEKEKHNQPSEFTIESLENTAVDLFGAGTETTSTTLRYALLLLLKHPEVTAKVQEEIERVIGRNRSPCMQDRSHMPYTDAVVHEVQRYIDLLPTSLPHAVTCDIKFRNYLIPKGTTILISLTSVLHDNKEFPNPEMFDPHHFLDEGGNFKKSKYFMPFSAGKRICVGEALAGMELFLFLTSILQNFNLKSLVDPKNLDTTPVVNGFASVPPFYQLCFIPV

Sequence of Protein arginine N-methyltransferase 3 (O60678 whole entry): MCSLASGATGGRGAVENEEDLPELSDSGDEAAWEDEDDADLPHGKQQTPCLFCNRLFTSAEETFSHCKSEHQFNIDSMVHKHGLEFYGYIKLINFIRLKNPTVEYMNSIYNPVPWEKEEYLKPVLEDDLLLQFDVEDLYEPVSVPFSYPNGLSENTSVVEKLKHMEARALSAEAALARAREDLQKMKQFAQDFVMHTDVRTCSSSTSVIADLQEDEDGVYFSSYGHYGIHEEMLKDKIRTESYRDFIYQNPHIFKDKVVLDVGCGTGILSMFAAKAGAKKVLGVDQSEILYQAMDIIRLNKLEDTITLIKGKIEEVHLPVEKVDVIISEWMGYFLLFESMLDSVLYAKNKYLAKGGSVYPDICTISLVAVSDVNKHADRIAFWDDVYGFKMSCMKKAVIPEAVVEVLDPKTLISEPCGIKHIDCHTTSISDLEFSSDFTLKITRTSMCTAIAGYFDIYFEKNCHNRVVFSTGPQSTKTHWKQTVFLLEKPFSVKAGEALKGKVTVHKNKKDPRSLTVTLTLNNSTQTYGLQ
Sequence of Protein arginine N-methyltransferase 1 (Q99873 whole entry): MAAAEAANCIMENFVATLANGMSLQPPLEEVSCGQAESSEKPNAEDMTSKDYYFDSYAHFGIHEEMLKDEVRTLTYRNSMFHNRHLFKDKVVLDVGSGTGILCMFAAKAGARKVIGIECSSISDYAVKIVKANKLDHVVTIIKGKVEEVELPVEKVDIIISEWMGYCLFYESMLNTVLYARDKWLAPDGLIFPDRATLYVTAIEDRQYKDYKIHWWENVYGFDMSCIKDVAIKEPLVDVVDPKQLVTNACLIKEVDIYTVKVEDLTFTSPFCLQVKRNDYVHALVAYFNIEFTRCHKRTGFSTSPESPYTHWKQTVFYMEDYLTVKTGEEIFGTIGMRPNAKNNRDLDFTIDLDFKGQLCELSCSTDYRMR
Sequence of Cytochrome P450 2D6 (P10635 whole entry): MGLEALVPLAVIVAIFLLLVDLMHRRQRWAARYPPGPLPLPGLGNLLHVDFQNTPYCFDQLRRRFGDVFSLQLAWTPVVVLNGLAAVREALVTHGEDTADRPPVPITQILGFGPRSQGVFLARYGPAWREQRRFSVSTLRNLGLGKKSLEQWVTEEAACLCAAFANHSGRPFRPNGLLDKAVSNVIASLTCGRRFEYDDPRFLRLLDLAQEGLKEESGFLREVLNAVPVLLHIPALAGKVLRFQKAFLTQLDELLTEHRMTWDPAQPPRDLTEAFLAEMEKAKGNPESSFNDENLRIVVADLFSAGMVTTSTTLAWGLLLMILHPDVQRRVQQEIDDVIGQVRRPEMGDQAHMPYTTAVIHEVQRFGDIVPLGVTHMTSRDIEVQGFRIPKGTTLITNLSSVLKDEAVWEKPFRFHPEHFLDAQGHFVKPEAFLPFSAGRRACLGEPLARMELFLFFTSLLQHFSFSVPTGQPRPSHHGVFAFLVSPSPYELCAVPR
Sequence of Cytochrome P450 3A4 (P08684 whole entry): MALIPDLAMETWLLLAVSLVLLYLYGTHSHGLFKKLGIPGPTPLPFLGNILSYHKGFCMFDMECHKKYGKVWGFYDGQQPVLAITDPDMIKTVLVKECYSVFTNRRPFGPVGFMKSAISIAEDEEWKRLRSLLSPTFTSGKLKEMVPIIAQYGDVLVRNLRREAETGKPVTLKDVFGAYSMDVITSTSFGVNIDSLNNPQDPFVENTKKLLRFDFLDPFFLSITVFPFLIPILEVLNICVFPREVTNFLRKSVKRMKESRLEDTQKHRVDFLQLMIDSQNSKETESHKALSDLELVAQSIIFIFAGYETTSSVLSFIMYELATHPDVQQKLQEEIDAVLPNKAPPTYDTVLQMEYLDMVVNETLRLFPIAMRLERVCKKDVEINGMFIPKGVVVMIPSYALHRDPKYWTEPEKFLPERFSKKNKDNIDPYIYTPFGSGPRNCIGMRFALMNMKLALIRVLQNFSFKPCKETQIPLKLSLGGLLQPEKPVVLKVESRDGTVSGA
Sequence of Cytochrome P450 2C19 (P33261 whole entry): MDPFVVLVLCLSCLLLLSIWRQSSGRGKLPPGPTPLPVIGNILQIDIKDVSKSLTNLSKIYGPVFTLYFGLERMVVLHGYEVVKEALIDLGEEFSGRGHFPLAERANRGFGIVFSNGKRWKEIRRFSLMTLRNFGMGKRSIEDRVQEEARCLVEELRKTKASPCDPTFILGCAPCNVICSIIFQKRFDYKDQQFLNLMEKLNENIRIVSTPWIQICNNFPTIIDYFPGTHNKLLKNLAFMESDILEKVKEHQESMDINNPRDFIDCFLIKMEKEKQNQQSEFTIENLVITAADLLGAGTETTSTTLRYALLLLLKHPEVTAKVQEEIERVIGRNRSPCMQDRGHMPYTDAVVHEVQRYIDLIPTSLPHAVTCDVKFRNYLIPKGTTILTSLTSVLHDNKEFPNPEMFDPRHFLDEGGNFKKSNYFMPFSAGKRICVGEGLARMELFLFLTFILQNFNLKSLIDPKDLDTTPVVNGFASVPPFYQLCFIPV

Papp [1]: < 1.5 ×10⁻⁶ cm/s
Structure (SMILES): C[C@H](N)C(=O)NCc1cccc(-n2nc(C(F)(F)F)cc2C(=O)NCc2ccccc2)c1

Papp [1]: 10.6 ×10⁻⁶ cm/s
Structure (SMILES): C[C@H](N)C(=O)NCc1cccc(-n2nc(C(F)(F)F)cc2-c2nnc(-c3ccccc3)o2)c1

pIC50 (Cytochrome P450 2C19): < 4.00
pIC50 [3]: < 4.60
pIC50 [4]: 7.40
pIC50 (Cytochrome P450 3A4): < 4.00
pEC50 [5]: < 4.60
pIC50 (Cytochrome P450 2D6): < 4.00
Papp [1]: 26.7 ×10⁻⁶ cm/s
pIC50 [6]: < 4.60
Stability [7]: 0.026 nM/min
pIC50 (Cytochrome P450 2C9): < 4.00
Structure (SMILES): C[C@H](N)C(=O)NCc1cccc(-n2nc(C(F)(F)F)cc2-c2nnc(-c3cccc4ncsc34)o2)c1
pIC50 [2]: < 4.00

pIC50 [4]: < 5.00
Structure (SMILES): C[C@H](N)CNCc1cccc(-n2nc(C(F)(F)F)cc2-c2nnc(-c3ccccc3)o2)c1

Papp [1]: < 1.5 ×10⁻⁶ cm/s
Structure (SMILES): COc1ccccc1Nc1nnc(-c2cc(C(F)(F)F)nn2-c2cccc(CNC(=O)[C@H](C)N)c2)o1

pIC50 [4]: < 5.00
Structure (SMILES): C[C@H](N)C(=O)N(C)Cc1cccc(-n2nc(C(F)(F)F)cc2-c2nnc(-c3ccccc3)o2)c1
